Experiments:
RPMI-8226 cells = test: Cell viability, CellTiter-Glo, 72 h; format: cell-based, human; settings: RPMI-8226, 72 h
Description: (§1) RPMI-8226, L363 and NCI-H929 cells were obtained from ATCC (Manassas, VA, USA) and were maintained in RPMI medium supplemented with 10% fetal bovine serum, and 100 U/mL penicillin/streptomycin, at 37 °C with 5% CO2. DMSO was used as the compound vehicle or vehicle control at a 0.1% final concentration for both cell culture and enzyme assay.
(§2) Error bars represent SD for triplicate wells.

L363 cells = test: Cell viability, CellTiter-Glo, 72 h; format: cell-based; settings: Homo sapiens, L-363; L363, 72 h
Description: as §1, §2

NCI-H929 cells = test: Cell viability, CellTiter-Glo, 72 h; format: cell-based; settings: Homo sapiens; NCI-H929, 72 h; CI by 3-parameter curve
Description: as §1, §2

26S proteasome = system: 26S proteasome; design: method as in PMID 29897236; settings: cited from earlier work

CCOC(=O)[C@]1(c2ccccc2)N=C(c2ccc(OC)cc2)N(Cc2ccccc2)[C@@H]1c1ccc(NCc2ccccc2)cc1 [TCH-165]
CC50 (RPMI-8226 cells; Homo sapiens): ~1000 nM
CC50 (RPMI-8226 cells): 900 nM
CC50 (L363 cells): 5000 nM
CC50 (NCI-H929 cells): 4300 nM
26S proteasome activity (26S proteasome): not affected
concentrations at which structured proteins targeted by the 26S-ubiquitin-dependent proteasome system were not affected (26S proteasome): < 30 µM
concentration at which disassembly of the 26S proteasome inhibited 26S-mediated degradation of ubiquitinylated substrates (26S proteasome; various cell lines, including RPMI-8226): > 30 µM

Reference: publication PMC9138505, “Small Molecule 20S Proteasome Enhancer Regulates MYC Protein Stability and Exhibits Antitumor Activity in Multiple Myeloma” (Biomedicines, 2022)
